According to patent US6686350B1, “Cell adhesion inhibitors” (Biogen, Inc., priority 1996, dated 2004):

biological target: T1, VLA-4 (Homo sapiens, UniProt P05556+P13612); experiment: VLA-4 direct binding assay (VCAM-IgG alkaline phosphatase conjugate binding to Jurkat cells); conditions: Table 1, Structure-Activity; assay and unit inferred; read-out: Act
T1 construct: endogenous in cells; host or cells: Jurkat cells
Text: A direct binding assay may also be employed to quantitate the inhibitory activity of the compounds of this invention. (“DBA”) In direct binding assays, for example, a VCAM-IgG fusion protein containing the first two immunoglobulin domains of VCAM (D1D2) attached above the hinge region of an IgG1 molecule (“VCAM 2D-IgG”), is conjugated to a marker enzyme, such as alkaline phosphatase (“AP”). The synthesis of this VCAM-IgG fusion is described in PCT publication WO 90/13300, the disclosure of which is herein incorporated by reference. The conjugation of that fusion to a marker enzyme can be achieved by cross-linking methods well-known in the art.
The VCAM-IgG enzyme conjugate is then placed in the wells of a multi-well filtration plate, such as that contained in the Millipore Multiscreen Assay System (Millipore Corp., Bedford, Mass.). Varying concentrations of the test inhibitory compound are then added to the wells followed by addition of VLA-4-expressing cells. The cells, compound and VCAM-IgG enzyme conjugate are mixed together and allowed to incubate at room temperature.
Following incubation, the wells are vacuum drained, leaving behind the cells and any bound VCAM. Quantitation of bound VCAM is determined by adding an appropriate calorimetric substrate for the enzyme conjugated to VCAM-IgG and determining the amount of reaction product. Decreased reaction product indicates increased binding inhibitory activity. The protocol is described more specifically below:
1. Block a 96 well Millipore Multiscreen Assay System filtration plate^1 with 200:l/well of blocking buffer (1×Phosphate Buffered Saline, 0.1%Tween 20, 1%BSA) for at least 1 hour at room temperature.
2. Drain the plate with the vacuum manifold, and wash with 200 μl/well of assay buffer (Tris Buffered Saline, 0.1% BSA, 2 mM glucose, 10 mM HEPES, pH 7.5) draining the plate in between. Repeat twice. Then blot the plate bottom on paper to remove excess buffer.
3. Prepare a 4 μg/ml VCAMIg-AP solution (Alkaline phosphatase coupled to VCAMIg) in assay buffer and filter with a 0.2:low protein binding syringe filter (Gelman Sciences #4454). From this stock, prepare a 0.4 μg/ml working solution of VCAMIg-AP in assay buffer. Add 25:l of 0.4 μg/ml VCAMIg-AP to every well.
5. Prepare dilutions of compounds to be tested in assay buffer. Concentrations should be 4× the desired final concentration and run in triplicate. Add 25 μl of the compound dilutions to designated wells.
7. Jurkat cells are centrifuged to remove cell culture media and washed once in assay buffer. Resuspend the washed Jurkat cells to a concentration of 8×10^6/ml in assay buffer containing 2 mM MnCl2. Pipeting the mixture up and down to ensure a uniform cell suspension. Add 50:l of cell suspension to each well except the NSB wells.
8. Gently tap the sides of the plate to mix well contents. Incubate the plate for 60 minutes at room temperature (RT).
9. Place the plate on the vacuum manifold to drain the well contents. Wash twice with 100 μl/well of wash buffer (assay buffer containing 1 mM MnCl2). Drain the plate and blot on paper towels.
10. Add 10 mg/ml of 4-Nitro phenyl phosphate to Substrate buffer (0.1M glycine, 1 mM ZnCl2, 1 mM MgCl2, pH 10.5). Add 100 μl/well and incubate for exactly 30 minutes at RT.
11. To stop the reaction, add 100 μl/well of 3N NaOH.
12. Read the 96-well plate in a Molecular Devices ELISA platereader at 405 nm. Analyze data with SoftMax software.

T1 sequence (P13612 34-1032): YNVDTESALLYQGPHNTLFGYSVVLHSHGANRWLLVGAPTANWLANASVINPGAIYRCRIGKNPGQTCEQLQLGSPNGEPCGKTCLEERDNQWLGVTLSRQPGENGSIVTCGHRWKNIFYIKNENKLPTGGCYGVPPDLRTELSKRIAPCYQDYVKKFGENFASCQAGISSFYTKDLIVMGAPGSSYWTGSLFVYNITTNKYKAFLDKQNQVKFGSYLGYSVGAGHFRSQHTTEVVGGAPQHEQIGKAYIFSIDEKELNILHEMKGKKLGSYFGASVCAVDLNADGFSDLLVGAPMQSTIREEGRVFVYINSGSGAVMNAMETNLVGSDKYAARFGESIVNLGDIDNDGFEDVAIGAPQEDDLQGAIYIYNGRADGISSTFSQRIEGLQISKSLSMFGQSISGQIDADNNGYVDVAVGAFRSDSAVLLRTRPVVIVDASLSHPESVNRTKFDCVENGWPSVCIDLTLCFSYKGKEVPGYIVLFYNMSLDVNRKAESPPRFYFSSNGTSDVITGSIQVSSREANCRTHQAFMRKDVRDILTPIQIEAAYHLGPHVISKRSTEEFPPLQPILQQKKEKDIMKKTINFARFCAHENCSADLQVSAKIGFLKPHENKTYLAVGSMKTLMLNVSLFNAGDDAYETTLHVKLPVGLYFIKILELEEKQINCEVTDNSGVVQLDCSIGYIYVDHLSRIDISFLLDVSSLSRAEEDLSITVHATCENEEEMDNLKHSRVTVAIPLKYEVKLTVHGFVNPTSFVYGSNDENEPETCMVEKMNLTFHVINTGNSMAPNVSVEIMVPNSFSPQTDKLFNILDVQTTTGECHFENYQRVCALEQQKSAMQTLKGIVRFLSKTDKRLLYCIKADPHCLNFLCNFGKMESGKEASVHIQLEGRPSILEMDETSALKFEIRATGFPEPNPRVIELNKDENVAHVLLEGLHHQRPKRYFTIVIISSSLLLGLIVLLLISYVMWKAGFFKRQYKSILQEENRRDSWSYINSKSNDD
T1 sequence (P05556 21-798): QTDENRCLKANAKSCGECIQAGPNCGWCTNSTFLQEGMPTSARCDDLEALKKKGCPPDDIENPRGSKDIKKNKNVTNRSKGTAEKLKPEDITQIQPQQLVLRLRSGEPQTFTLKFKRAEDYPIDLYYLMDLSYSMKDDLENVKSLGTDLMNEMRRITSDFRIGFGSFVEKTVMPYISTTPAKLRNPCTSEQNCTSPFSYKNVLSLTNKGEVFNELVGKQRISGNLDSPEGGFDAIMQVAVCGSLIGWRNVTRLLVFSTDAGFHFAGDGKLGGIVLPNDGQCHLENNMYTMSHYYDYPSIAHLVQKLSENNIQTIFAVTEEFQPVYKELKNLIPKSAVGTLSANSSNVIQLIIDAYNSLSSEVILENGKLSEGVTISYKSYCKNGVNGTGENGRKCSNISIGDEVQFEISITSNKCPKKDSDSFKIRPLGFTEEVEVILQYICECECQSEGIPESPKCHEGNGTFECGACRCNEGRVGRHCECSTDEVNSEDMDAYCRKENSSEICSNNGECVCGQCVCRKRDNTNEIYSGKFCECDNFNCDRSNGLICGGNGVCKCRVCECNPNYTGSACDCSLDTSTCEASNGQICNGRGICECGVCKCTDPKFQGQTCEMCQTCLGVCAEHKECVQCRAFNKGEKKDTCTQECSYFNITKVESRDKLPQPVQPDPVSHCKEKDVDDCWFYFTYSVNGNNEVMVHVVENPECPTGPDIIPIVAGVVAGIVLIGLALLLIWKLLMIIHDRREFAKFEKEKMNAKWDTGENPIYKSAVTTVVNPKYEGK

Compound	IC50 [nM]
Cc1ccccc1NC(=O)Nc1ccc(CC(=O)Nc2ccccc2OCCC(=O)O)cc1 [UX1]	4500
Cc1ccccc1NC(=O)Nc1ccc(CC(=O)Nc2cccc(OCCCCC(=O)O)c2)cc1 [RX4]	4460
Cc1ccccc1NC(=O)Nc1ccc(NC(=O)Nc2cccc(OCCCC(=O)O)c2)cc1 [RX13]	686
COc1cccc(C(=O)N(CCC(=O)O)CC(=O)N(CCC(C)C)CC(=O)Nc2ccc(N3CCOCC3)c(Cl)c2)c1 [AX9]	7380
Cc1ccccc1NC(=O)Nc1ccc(CC(=O)Nc2cccc(OCCCC(=O)O)c2)cc1 [RX23]	144
CN1C(=O)CN(CCC(=O)O)C(=O)c2cc(NC(=O)Cc3ccc(NC(=O)c4ccco4)cc3)ccc21 [BX12]	6100
COc1cccc(C(=O)N(CCC(=O)O)CC(=O)N(CCC(C)C)CC(=O)Nc2ccc(CC(=O)N3CCc4ccccc43)cc2)c1 [AX21]	761
Cc1ccccc1NC(=O)Nc1ccc(CC(=O)Nc2cc(OCCCC(=O)O)cc(OCCC(C)C)c2)cc1 [RX16]	574
COC(=O)CCCOc1cc(NC(=O)Cc2ccc(NC(=O)Nc3ccccc3C)cc2)cc(OCCCC(=O)O)c1 [RX22]	157
COc1ccc([C@H](CC(=O)O)NC(=O)C(CC(=O)Nc2ccc(NC(=O)c3ccccc3)cc2)CC(C)C)cc1OC (stereo partly drawn) [SX3]	165
Cc1ccccc1NC(=O)Nc1ccc(NC(=O)[C@@H]2CSCN2C(=O)CCCCC(=O)O)cc1 [CX12]	63.5
COc1ccc(C(CC(=O)O)NC(=O)CCC(=O)Nc2ccc(NC(=O)Nc3ccccc3C)cc2)cc1OC (stereo not drawn) [SX51]	142
COc1ccc([C@H](CC(=O)O)NC(=O)C(CC(=O)Nc2ccc(COCc3ccccc3)cc2)CC(C)C)cc1OC (stereo partly drawn) [SX29]	700
Cc1ccccc1NC(=O)Nc1ccc(CC(=O)NCc2cccc(OCC(=O)O)c2)cc1 [RX11]	1140
Cc1ccccc1NC(=O)Nc1ccc(NC(=O)CCC(=O)N[C@H](C)CC(=O)O)cc1 [SX35]	468
COc1cc(NC(=O)Cc2ccc(NC(=O)Nc3ccccc3C)cc2)cc(OCCCC(=O)O)c1 [RX26]	77.7
Cc1ccccc1NC(=O)Nc1ccc(N2CC[C@@H](CC(=O)N[C@H](C)CC(=O)O)C2=O)cc1 [SX26]	769
Cc1ccccc1NC(=O)Nc1ccc(NC(=O)c2ccc3c(c2)C(=O)N(CCC(=O)O)CC(=O)N3C)cc1 [BX17]	977
COc1cccc(C(=O)N(CCC(=O)O)CC(=O)N(CCC(C)C)CC(=O)Nc2cccc(C(=O)CC(=O)Nc3nccs3)c2)c1 [AX15]	2410
Cc1ccccc1NC(=O)Nc1ccc(NC(=O)CC(CC(C)C)C(=O)NC(C)CC(=O)O)cc1 (stereo not drawn) [SX50]	167
CC(C)CN(CC(=O)Nc1ccc(NC(=O)Nc2ccccc2)cc1)C(=O)CN(CCC(=O)O)C(=O)c1ccccc1 [AX28]	150
COc1ccc([C@H](CC(=O)O)NC(=O)C(N)CC(=O)Nc2ccc(NC(=O)Nc3ccccc3C)cc2)cc1OC (stereo partly drawn) [SX19]	1940
Cc1ccccc1NC(=O)Nc1ccc(CC(=O)Nc2ccc3c(c2)C(=O)N(CCC(=O)O)C(C)C(=O)N3C)cc1 (stereo not drawn) [BX38]	550
Cc1ccccc1NC(=O)Nc1ccc(CC(=O)Nc2ccc(C)c(OCCCC(=O)O)c2)cc1 [RX24]	855
COc1ccc([C@H](CC(=O)O)NC(=O)C(O)CC(=O)Nc2ccc(NC(=O)Nc3ccccc3C)cc2)cc1OC (stereo partly drawn) [SX38]	404
COc1ccc(C(CC(=O)O)NC(=O)C(CC(=O)NCc2ccccc2)CC(C)C)cc1 (stereo not drawn) [SX28]	717
COc1ccc([C@H](CC(=O)O)NC(=O)C(CC(=O)Nc2ccc(NC(=O)NS(=O)(=O)c3ccccc3C)cc2)CC(C)C)cc1OC (stereo partly drawn) [SX42]	298

Compound	IC50 [nM]
Cc1c(C(=O)Nc2ccc3c(c2)C(=O)N(CCC(=O)O)CC(=O)N3C)c(=O)n(-c2ccccc2)n1C [BX6]	15400
Cc1ccccc1NC(=O)Nc1ccc(NC(=O)C[C@@H](CC(C)C)C(=O)NC(CC(=O)O)c2ccc3c(c2)OCO3)cc1 (stereo partly drawn) [SX56]	55
COC(=O)CN1C(=O)CN(CCC(=O)O)C(=O)c2cc(NC(=O)Cc3ccc(NC(=O)Nc4ccccc4C)cc3)ccc21 [BX57]	113
Cc1ccccc1NC(=O)Nc1ccc(NC(=O)CN(CCC(C)C)C(=O)CN(CCC(=O)O)C(=O)CN2CCCCC2)cc1 [AX22]	636
Cc1ccccc1NC(=O)Nc1ccc(NC(=O)[C@@H]2CCCN2C(=O)CC(C)CCC(=O)O)cc1 (stereo partly drawn) [CX11]	144
Cc1ccccc1NC(=O)Nc1ccc(NC(=O)CN(CCC(C)C)C(=O)CN(CCC(=O)O)C(=O)COc2ccccc2)cc1 [AX25]	246
COc1cccc(C(=O)N(CCC(=O)O)CC(=O)N(CCC(C)C)CC(=O)Nc2ccc(-n3cnc(Cl)c3Cl)cc2)c1 [AX4]	15200
CC(CC(=O)Nc1ccc(NC(=O)Nc2ccccc2)cc1)C(=O)N[C@H](C)CC(=O)O (stereo partly drawn) [SX43]	247
Cc1ccccc1NC(=O)Nc1ccc(CC(=O)Nc2ccc3c(c2)C(=O)N(CCC(=O)O)CC(=O)N3C2CCCCC2)cc1 [BX40]	438
Cc1ccccc1NC(=O)Nc1ccc(NC(=O)[C@@H]2CCCN2C(=O)NCCC(=O)O)cc1 [CX7]	190
Cc1ccccc1NC(=O)Nc1ccc(NC(=O)[C@@H]2CCCN2C(=O)CC(C)CC(=O)O)cc1 (stereo partly drawn) [CX10]	258
Cc1ccccc1NC(=O)Nc1ccc(C(=O)NCc2ccc3c(c2)C(=O)N(CCC(=O)O)CC(=O)N3C)cc1 [BX29]	825
CCOC(=O)CCN1CC(=O)N(CCC(=O)O)Cc2cc(NC(=O)Cc3ccc(NC(=O)Nc4ccccc4C)cc3)ccc21 [BX72]	12.5
COc1ccc([C@H](CC(=O)O)NC(=O)CCC(=O)Nc2ccc(NC(=O)Nc3ccccc3)c(O)c2)cc1OC [SX45]	216
COC(=O)C(C(C)C)N1C(=O)CN(CCC(=O)O)C(=O)c2cc(NC(=O)Cc3ccc(NC(=O)Nc4ccccc4C)cc3)ccc21 (stereo not drawn) [BX63]	75
COc1ccc(C(=O)N(CCC(=O)O)CC(=O)N(CCC(C)C)CC(=O)Nc2ccccc2)cc1 [AX7]	11500
Cc1ccccc1NC(=O)Nc1ccc(CNC(=O)C(CC(=O)NC(CC(=O)O)c2ccc3c(c2)OCO3)CC(C)C)cc1 (stereo not drawn) [SX34]	500
Cc1ccccc1NC(=O)Nc1ccc(CC(=O)N(C)c2ccc3c(c2)C(=O)N(CCC(=O)O)CC(=O)N3C)cc1 [BX23]	3240
COc1ccc([C@H](CC(=O)O)NC(=O)C(CC(=O)Nc2ccc(C(N)=O)cc2)CC(C)C)cc1OC (stereo partly drawn) [SX15]	3000
COc1ccc([C@H](CC(=O)O)NC(=O)C(CC(=O)Nc2ccc(CCc3ccccc3C)cc2)CC(C)C)cc1OC (stereo partly drawn) [SX39]	397
Cc1ccccc1NC(=O)Nc1ccc(NC(=O)[C@@H]2CCCN2C(=O)CN(CCC(=O)O)C(=O)c2ccccc2)cc1 [AX35]	85
CN1Cc2ccc(NC(=O)Cc3ccc(NC(=O)Nc4ccccc4Br)cc3)cc2CN(CC(=O)O)C1=O [BX65]	65
COc1cccc(C(=O)N(CCC(=O)O)CC(=O)N(CCC(C)C)CC(=O)Nc2ccccc2)c1 [AX18]	1400
Cc1ccccc1NC(=O)Nc1ccc(NC(=O)[C@@H]2CCCN2C(=O)NCCCC(=O)O)cc1 [CX2]	8940
CC(C)CCN(CC(=O)Nc1ccc(NC(=O)Nc2ccccc2)cc1)C(=O)CN(CCC(=O)O)C(=O)c1ccccc1 [AX33]	95
Cc1ccccc1NC(=O)Nc1ccc(CC(=O)Nc2ccc3c(c2)C(=O)N(C(CC(=O)O)C(=O)O)CC(=O)N3CCC(=O)O)cc1 (stereo not drawn) [BX62]	95

tested on: not given; experiment: not given; conditions: not given

Compound	melting point [°C]
COCCC(=O)N(CCC(=O)O)CC(=O)N(CCC(C)C)CC(=O)Nc1ccc(NC(=O)Nc2ccccc2C)cc1 [AY44]	164 to 166
